Marks after values point to notes of the source that are not given here.
Experiments:
[1] = tested on: mice pain response induced by hot plate; assay: Mice pain response induced by hot plate; type: in vivo, ICR mice; conditions: for pain thresholds of the thermal-stimulus mice, in words: compared with the model group; for Pain threshold: hot plate 55°C
Method: Female ICR mice (20±2) g were placed on an intelligent hot plate at 55±0.5° C., and latency (s) that the plantar of mice touched the hot plate until the occurrence of a hind paws licking response served as a pain threshold indicator; the mice (response latency <5 s or >30 s) or jumping mice were eliminated.
Grouping and administration were the same as those in Example 40.
The mice were continuously administered intragastrically for 7 consecutive days; the pain threshold of each group of mice was respectively determined once at 30, 60, 90 and 120 min after the final administration; the pain threshold greater than 60 s was calculated by 60 s.

[2] = molecular target: T1, recombinant human protein MAGL (Homo sapiens, UniProt Q99685); assay: MAGL enzyme analysis (Cayman MAGL inhibitor screening kit); type: biochemical; conditions: 4-nitrophenylacetic acid substrate, absorbance 410 nm, read-out: MAGLXIC50
T1 construct: purchased Cayman
T1 sequence (Q99685 1-303): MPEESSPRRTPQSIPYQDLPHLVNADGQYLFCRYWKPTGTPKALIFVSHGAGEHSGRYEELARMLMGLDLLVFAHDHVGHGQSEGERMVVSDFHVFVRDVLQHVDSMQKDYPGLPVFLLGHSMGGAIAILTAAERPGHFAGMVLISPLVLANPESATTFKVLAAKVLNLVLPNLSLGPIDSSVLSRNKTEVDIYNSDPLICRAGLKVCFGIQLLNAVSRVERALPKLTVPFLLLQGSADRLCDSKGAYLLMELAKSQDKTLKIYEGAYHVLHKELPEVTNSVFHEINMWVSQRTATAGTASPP
Method: 150 µL 1Xassay buffer, 10 µL recombinant human protein MAGL and 10 µL different concentrations of MAGL inhibitors (six points within 1 nM to 1000 nM) were added to per well of a 96-well plate. JZL195 (a positive control inhibitor) served as a positive control well, after incubation for 5 min at room temperature, per well was added with 10 µL MAGL substrate, and […] were vibrated for 10 s and placed for 10 min at room temperature, then an absorbance was detected at 410 nm. […] Graphad Prism 5.0 was taken to calculate IC50 curves fitting each inhibitor.

[3] = tested on: irritable bowel syndrome rats; assay: Irritable bowel syndrome rats induced by early maternal separation; type: in vivo, SD rats; design: AWR scoring: scale not given here; conditions: for Colon 5-HT / Serum 5-HT / AWR scoring: IBS rats; for 5-HT level in colon and serum, in words / AWR scoring, in words: compared with the model group
Method: The newborn SD male rats were separated from the mother rat in lactation period for 3 h every day on the 2nd to the 21st day after the birth of the newborn SD rats, namely, the mother rat in lactation period was taken out of the cage at 8:30 a.m., and then the newborn rats were removed from the initial cage and put to another separate cage, then the cage was transferred to an adjacent room, then the newborn rats were returned to the initial cage 3 h later, namely, at 11:30 such that the newborn rats and the mother rat got together; the newborn rats were weaned on the 22nd day after birth and separated from the initial cage on the 30th day, grouped on the 60th day, and administered, 20 d in total.
Intragastric administration was performed within the administration period once a day with continuous administration for 20 d.
Test indicators: abdominal withdrawal reflex (AWR); test method: rats were fasted 18 h before the experiment and drank water freely, and narcotized with diethyl ether; then an air sac coated with paraffin oil was inserted into the rats’ colorectum for 4.0 cm, and a catheter outside the anus was fixed at the root of the rat tail with an adhesive tape, and connected with an injection syringe and a sphygmomanometer via three links. The rats were put to an organic glass inspection box (20 cmx12 cm×9 cm), after the rats were awake and fully adapted to the environment for 30 min, the experiment was started. 20, 40 and 60 mm Hg of pressure were respectively applied on the rats, and continuous expansion was performed for 20 s each time with a stimulus interval of 4 min; each pressure was performed for 3 times repeatedly for AWR scoring.
At the end of the experiment, the animals were dissected and weighed, and narcotized to take blood, then the content of 5-HT in serum was determined by high performance liquid chromatography. […] slightly with 0.5% sodium carboxymethylcellulose, and then sucked dry with a filter paper, and placed into a cryogenic tube, and preserved at -20° C. for further use, […] chromatography.

[4] = tested on: mice writhing caused by acetic acid; assay: Mice writhing caused by acetic acid; conditions: for latent time, in words / mice writhing times caused by acetic acid, in words: compared with the model group; for Writhing times: 1 h before 0.7% acetic acid ip, within 20 min; for Latent time: time to first writhing; for Inhibition ratio: writhing inhibition
Method: Each compound was prepared into a suspension by 0.5% sodium carboxymethylcellulose respectively, and then set according to the dose, and each administration group was administered intragastrically; the model group was administered intragastrically an equal volume of 0.5% sodium carboxymethylcellulose.
Mice were intraperitoneally injected with acetic acid to cause a large area and more lasting painful stimuli in deep enterocoelia, causing mice to produce writhing responses. After being administered for 1 h, each dose group was intraperitoneally injected with 0.7% acetic acid-normal saline solution (0.1 ml/10 g).
The time (pain latent time) that the mice started to appear writhing after being intraperitoneally injected with acetic acid was recorded.
The writhing response times of each mouse within 20 min were recorded after injecting acetic acid to cause pain, and then, the writhing inhibition ratio of each administration group was calculated.
Writhing inhibition ratio = [(writhing times of the control group -writhing times of the administration group)/writhing times of the control group] × 100%
Experimental data is shown by x±s and subjected to variance analysis by SPSS 15.0 software.

[5] = high dose 30 mg/kg ig 7 d, 30 min after final administration
[6] = high dose 30 mg/kg ig 7 d, 60 min
[7] = high dose 30 mg/kg ig 7 d, 90 min
[8] = high dose 30 mg/kg ig 7 d, 120 min
[9] = low dose 7.5 mg/kg ig 7 d, 30 min after final administration
[10] = low dose 7.5 mg/kg ig 7 d, 60 min
[11] = low dose 7.5 mg/kg ig 7 d, 90 min
[12] = low dose 7.5 mg/kg ig 7 d, 120 min
[13] = middle dose 15 mg/kg ig 7 d, 30 min after final administration
[14] = middle dose 15 mg/kg ig 7 d, 60 min
[15] = middle dose 15 mg/kg ig 7 d, 90 min
[16] = middle dose 15 mg/kg ig 7 d, 120 min
[17] = high dose 30 mg/kg ig 20 d, 20 mm Hg
[18] = high dose 30 mg/kg ig 20 d, 40 mm Hg
[19] = high dose 30 mg/kg ig 20 d, 60 mm Hg
[20] = low dose 7.5 mg/kg ig 20 d, 20 mm Hg
[21] = low dose 7.5 mg/kg ig 20 d, 40 mm Hg
[22] = low dose 7.5 mg/kg ig 20 d, 60 mm Hg
[23] = middle dose 15 mg/kg ig 20 d, 20 mm Hg
[24] = middle dose 15 mg/kg ig 20 d, 40 mm Hg
[25] = middle dose 15 mg/kg ig 20 d, 60 mm Hg

## O=C(Nc1cccc(Cl)c1)C1CCN(C(=O)c2cc(O)ccc2F)CC1 [MAGLZ-II-11 (a)]
[1]
  pain thresholds of the thermal-stimulus mice, in words: significantly extend
[1]; [5]
  Pain threshold: 39.45 ± 6.75 s
[1]; [6]
  Pain threshold: 46.56 ± 6.35 s
[1]; [7]
  Pain threshold: 45.42 ± 6.84 s
[1]; [8]
  Pain threshold: 43.73 ± 5.68 s
[1]; [9]
  Pain threshold: 36.18 ± 8.50 s
[1]; [10]
  Pain threshold: 43.17 ± 7.43 s
[1]; [11]
  Pain threshold: 42.83 ± 7.34 s
[1]; [12]
  Pain threshold: 42.16 ± 7.05 s
[1]; [13]
  Pain threshold: 38.16 ± 7.00 s
[1]; [14]
  Pain threshold: 45.47 ± 7.03 s
[1]; [15]
  Pain threshold: 43.71 ± 5.87 s
[1]; [16]
  Pain threshold: 42.34 ± 7.04 s
[2]
  IC50: 2.15 µM
[3]; high dose 30 mg/kg ig 20 d
  Colon 5-HT: 12.65±3.36^∗∗∗ µg/mg
  Serum 5-HT: 24.05±6.17^∗∗∗ µg/ml
[3]; [17]
  AWR scoring: 1.23±0.50^∗∗ ∗
[3]; [18]
  AWR scoring: 2.13±0.48^∗∗∗
[3]; [19]
  AWR scoring: 2.87±0.46^∗∗∗
[3]; low dose 7.5 mg/kg ig 20 d
  Colon 5-HT: 16.33±2.78^∗∗ µg/mg
  Serum 5-HT: 31.76±5.42^∗∗ µg/ml
[3]; [20]
  AWR scoring: 2.12±0.36^∗∗ ∗
[3]; [21]
  AWR scoring: 3.02±0.53^∗
[3]; [22]
  AWR scoring: 3.58±0.26^∗∗
[3]; middle dose 15 mg/kg ig 20 d
  Colon 5-HT: 14.79±2.73^∗∗∗ µg/mg
  Serum 5-HT: 29.89±5.34^∗∗∗ µg/ml
[3]; [23]
  AWR scoring: 1.51±0.43^∗∗ ∗
[3]; [24]
  AWR scoring: 2.52±0.38^∗∗∗
[3]; [25]
  AWR scoring: 3.27±0.48^∗∗∗
[3]
  5-HT level in colon and serum, in words: significantly decrease
  AWR scoring, in words: significantly decrease
[4]
  latent time, in words: extend
  mice writhing times caused by acetic acid, in words: significantly decrease
[4]; high dose 30 mg/kg ig
  Writhing times: 12.5±9.4
  Latent time: 488.8 ± 172.0 s
  Inhibition ratio: 68.2%
[4]; low dose 7.5 mg/kg ig
  Writhing times: 22.6±12.0
  Latent time: 401.2 ± 168.3 s
  Inhibition ratio: 42.5%
[4]; middle dose 15 mg/kg ig
  Writhing times: 18.6±14.6
  Latent time: 438.9 ± 230.0 s
  Inhibition ratio: 52.7%

## O=C(Nc1cccc(Cl)c1)C1CCN(C(=O)c2cc3cc(F)ccc3[nH]2)CC1 [MAGLZ-II-18 (a)]
[1]
  pain thresholds of the thermal-stimulus mice, in words: significantly extend
[1]; [5]
  Pain threshold: 40.86 ± 7.17 s
[1]; [6]
  Pain threshold: 46.29 ± 5.27 s
[1]; [7]
  Pain threshold: 48.70 ± 5.73 s
[1]; [8]
  Pain threshold: 47.04 ± 5.54 s
[1]; [9]
  Pain threshold: 34.62 ± 6.65 s
[1]; [10]
  Pain threshold: 40.29 ± 6.73 s
[1]; [11]
  Pain threshold: 43.98 ± 6.55 s
[1]; [12]
  Pain threshold: 43.56 ± 6.01 s
[1]; [13]
  Pain threshold: 37.51 ± 6.07 s
[1]; [14]
  Pain threshold: 42.42 ± 5.90 s
[1]; [15]
  Pain threshold: 45.86 ± 7.09 s
[1]; [16]
  Pain threshold: 44.38 ± 5.44 s
[2]
  IC50: 2.15 µM
[3]; high dose 30 mg/kg ig 20 d
  Colon 5-HT: 13.90 ± 1.13 µg/mg
  Serum 5-HT: 29.44 ± 4.37 µg/mL
[3]; [17]
  AWR scoring: 1.96±0.46** *
[3]; [18]
  AWR scoring: 2.60±0.58
[3]; [19]
  AWR scoring: 3.00±0.54
[3]; low dose 7.5 mg/kg ig 20 d
  Colon 5-HT: 16.43 ± 2.15 µg/mg
  Serum 5-HT: 32.51 ± 5.01 µg/mL
[3]; [20]
  AWR scoring: 2.58±0.26
[3]; [21]
  AWR scoring: 3.06±0.38
[3]; [22]
  AWR scoring: 3.50±0.29
[3]; middle dose 15 mg/kg ig 20 d
  Colon 5-HT: 14.64 ± 2.17 µg/mg
  Serum 5-HT: 30.20 ± 5.59 µg/mL
[3]; [23]
  AWR scoring: 2.35±0.40
[3]; [24]
  AWR scoring: 3.02±0.51
[3]; [25]
  AWR scoring: 3.39±0.34
[3]
  5-HT level in colon and serum, in words: significantly decrease
  AWR scoring, in words: significantly decrease
[4]
  latent time, in words: extend
  mice writhing times caused by acetic acid, in words: significantly decrease
[4]; high dose 30 mg/kg ig
  Writhing times: 17.8±11.1
  Latent time: 422.4 ± 137.9 s
  Inhibition ratio: 54.7%
[4]; low dose 7.5 mg/kg ig
  Writhing times: 24.2±8.5
  Latent time: 355.5 ± 136.5 s
  Inhibition ratio: 38.4%
[4]; middle dose 15 mg/kg ig
  Writhing times: 20.8±12.5
  Latent time: 380.7 ± 130.7 s
  Inhibition ratio: 47.1%
